Laboratory results as given in article PMC7753147, “High-throughput determination of protein affinities using unmodified peptide libraries in nanomolar scale” (iScience, 2020).

Experiments:
FL-geph = test: µSPOT peptide microarray binding assay with full-length geph
gephE = test: µSPOT peptide microarray binding assay with recombinant gephE
native geph = test: µSPOT peptide microarray binding assay with native geph from mouse brain lysate
[1] = µSPOT peptide microarray, GlyRβ full positional scan, intensity normalised to wild-type sequence DLRSNDFSIVGSLPR (=1)
[2] = µSPOT peptide microarray, GlyRβ full positional scan, recombinant gephE, intensity normalised to wild-type sequence DLRSNDFSIVGSLPR (=1)
[3] = µSPOT peptide microarray, GlyRβ full positional scan, native geph from mouse brain lysate, intensity normalised to wild-type sequence DLRSNDFSIVGSLPR (=1)
[4] = µSPOT full positional scan of GlyRβ 15-mer DLRSNDFSIVGSLPR, intensity normalised to wild-type sequence (= 1)
[5] = µSPOT full positional scan of GlyRβ 15-mer DLRSNDFSIVGSLPR, native geph, intensity normalised to wild-type sequence (= 1)

Fl-geph Binding Intensity [norm.] (FL-geph; [1]) | gephE Binding Intensity [norm.] (gephE; [2]) | Native geph Binding Intensity [norm.] (native geph; [3]) | Fl-geph Binding Intensity [norm.] (FL-geph; [4]) | gephE Binding Intensity [norm.] (gephE; [4]) | Native geph Binding Intensity [norm.] (native geph; [5]) | Sequence
1.1 norm. | 1.18 norm. | 0.66 norm. | – | – | – | LLRSNDFSIVGSLPR [GlyRβ_Full_Positional_Scan_004]
1.01 norm. | 1.01 norm. | 1.02 norm. | – | – | – | DPRSNDFSIVGSLPR [GlyRβ_Full_Positional_Scan_025]
– | – | – | 0.44 norm. | 0.4 norm. | 0.2 norm. | DLRSNDFSIVSSLPR [GlyRβ_Full_Positional_Scan_215, GlyR β 414-428 variant G424S]
0.66 norm. | 0.86 norm. | 0.47 norm. | – | – | – | DLRSWDFSIVGSLPR [GlyRβ_Full_Positional_Scan_088]
0.78 norm. | 0.95 norm. | 0.53 norm. | – | – | – | DLRSNQFSIVGSLPR [GlyRβ_Full_Positional_Scan_120]
0.77 norm. | 0.63 norm. | 0.41 norm. | – | – | – | DLRSNDRSIVGSLPR [GlyRβ_Full_Positional_Scan_132, GlyR β 414-428 variant F420R]
– | – | – | 0.96 norm. | 0.81 norm. | 0.47 norm. | DLRSNDFSIVGKLPR [GlyRβ_Full_Positional_Scan_234]
0.55 norm. | 0.41 norm. | 0.21 norm. | – | – | – | DLRSNDFSHVGSLPR [GlyRβ_Full_Positional_Scan_173, GlyR β 414-428 variant I422H]
1 norm. | 1.05 norm. | 0.74 norm. | – | – | – | YLRSNDFSIVGSLPR [GlyRβ_Full_Positional_Scan_009]
0.55 norm. | 0.49 norm. | 0.37 norm. | – | – | – | DLRSNDGSIVGSLPR [GlyRβ_Full_Positional_Scan_122, GlyR β 414-428 variant F420G]
0.92 norm. | 0.89 norm. | 0.75 norm. | – | – | – | DLRSNSFSIVGSLPR [GlyRβ_Full_Positional_Scan_115]
– | – | – | 0.44 norm. | 0.5 norm. | 0.17 norm. | DLRSNDFSIVKSLPR [GlyRβ_Full_Positional_Scan_214, GlyR β 414-428 variant G424K]
– | – | – | 1.37 norm. | 0.87 norm. | 1.56 norm. | DLRSNDFSIVGSLPT [GlyRβ_Full_Positional_Scan_296]
0.67 norm. | 0.59 norm. | 0.2 norm. | – | – | – | DLRSNDFSWVGSLPR [GlyRβ_Full_Positional_Scan_168, GlyR β 414-428 variant I422W]
– | – | – | 0.84 norm. | 0.64 norm. | 0.49 norm. | DLRSNDFSIVGELPR [GlyRβ_Full_Positional_Scan_231]
0.86 norm. | 0.91 norm. | 0.67 norm. | – | – | – | WLRSNDFSIVGSLPR [GlyRβ_Full_Positional_Scan_008]
0.84 norm. | 0.79 norm. | 0.34 norm. | – | – | – | DLRSNDFSIYGSLPR [GlyRβ_Full_Positional_Scan_189, GlyR β 414-428 variant V423Y]

Fl-geph Binding Intensity [norm.] (FL-geph; [1]) | gephE Binding Intensity [norm.] (gephE; [2]) | Native geph Binding Intensity [norm.] (native geph; [3]) | Fl-geph Binding Intensity [norm.] (FL-geph; [4]) | gephE Binding Intensity [norm.] (gephE; [4]) | Native geph Binding Intensity [norm.] (native geph; [5]) | Sequence
0.85 norm. | 0.86 norm. | 0.48 norm. | – | – | – | DLRSNHFSIVGSLPR [GlyRβ_Full_Positional_Scan_113]
– | – | – | 1.36 norm. | 0.98 norm. | 1.37 norm. | DLRSNDFSIVGSLPN [GlyRβ_Full_Positional_Scan_299]
0.84 norm. | 0.92 norm. | 0.86 norm. | – | – | – | DLRHNDFSIVGSLPR [GlyRβ_Full_Positional_Scan_073]
0.56 norm. | 0.48 norm. | 0.27 norm. | – | – | – | DLRSNDFSIGGSLPR [GlyRβ_Full_Positional_Scan_182, GlyR β 414-428 variant V423G]
– | – | – | 1.01 norm. | 0.58 norm. | 0.21 norm. | DLRSNDFSIVGSLKR [GlyRβ_Full_Positional_Scan_274]
0.53 norm. | 0.56 norm. | 0.34 norm. | – | – | – | DLRSNDFSGVGSLPR [GlyRβ_Full_Positional_Scan_162, GlyR β 414-428 variant I422G]
1.4 norm. | 0.87 norm. | 1.35 norm. | – | – | – | DLSSNDFSIVGSLPR [GlyRβ_Full_Positional_Scan_055]
0.95 norm. | 0.99 norm. | 0.85 norm. | – | – | – | DLRSSDFSIVGSLPR [GlyRβ_Full_Positional_Scan_095]
– | – | – | 0.7 norm. | 0.51 norm. | 0.25 norm. | DLRSNDFSIVGPLPR [GlyRβ_Full_Positional_Scan_225]
– | – | – | 1.08 norm. | 0.69 norm. | 0.92 norm. | DLRSNDFSIVGSMPR [GlyRβ_Full_Positional_Scan_258]
1.03 norm. | 0.72 norm. | 0.64 norm. | – | – | – | DLRSNDFNIVGSLPR [GlyRβ_Full_Positional_Scan_159, GlyR β 414-428 variant S421N]
– | – | – | 1 norm. | 0.94 norm. | 0.93 norm. | DLRSNDFSIVGSIPR [GlyRβ_Full_Positional_Scan_243]
– | – | – | 1.21 norm. | 0.96 norm. | 0.66 norm. | DLRSNDFSIVGSLPD [GlyRβ_Full_Positional_Scan_290]
0.76 norm. | 0.51 norm. | 0.27 norm. | – | – | – | DLRSNDFSFVGSLPR [GlyRβ_Full_Positional_Scan_167, GlyR β 414-428 variant I422F]
0.97 norm. | 0.85 norm. | 0.75 norm. | – | – | – | DLRSNTFSIVGSLPR [GlyRβ_Full_Positional_Scan_116]
0.85 norm. | 0.7 norm. | 0.27 norm. | – | – | – | DLRSNDFYIVGSLPR [GlyRβ_Full_Positional_Scan_149, GlyR β 414-428 variant S421Y]
